Results on 76 molecules are retold here after the Kinase Knowledgebase extract (Sharma et al. 2016).

Some results are limits rather than exact numbers.

MAPK14, sequence (Q16539 whole entry, looked up): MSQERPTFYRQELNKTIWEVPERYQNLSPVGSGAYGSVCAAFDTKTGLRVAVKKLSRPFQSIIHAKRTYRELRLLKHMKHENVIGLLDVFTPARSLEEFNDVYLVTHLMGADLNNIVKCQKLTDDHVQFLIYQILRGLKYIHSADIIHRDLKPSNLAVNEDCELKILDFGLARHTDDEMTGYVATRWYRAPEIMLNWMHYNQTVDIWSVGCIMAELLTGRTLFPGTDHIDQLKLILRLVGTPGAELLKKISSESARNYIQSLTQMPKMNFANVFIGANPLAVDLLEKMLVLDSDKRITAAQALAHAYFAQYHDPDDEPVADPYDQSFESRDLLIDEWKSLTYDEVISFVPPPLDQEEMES

This assay has as its target MAPK14 (UniProt Q16539). Nature of the assay: Inhibition of MAPK14 Kinase Activity.
Consider `Cn1nc(C(C)(C)C)cc1NC(=O)Nc1cc(F)cc(OC2CCN(C(=O)c3cccc(CN4CCOCC4)c3)CC2)c1`, for which the IC50 – broadly, the midpoint of a concentration-inhibition curve – was under 5 µM.
The figure for `CCn1nc(C(C)(C)C)cc1NC(=O)Nc1ccc(CN2CCN(C(=O)c3ccc(F)cc3F)CC2)cc1F` is under 5 µM; for `Cn1nc(C(C)(C)C)cc1NC(=O)Nc1ccc(CN2CCN(C(=O)c3ccncc3)CC2)cc1` it is under 5 µM; for `CC(C)(C)c1cc(NC(=O)Nc2ccc(OC3CCN(C(=O)c4ccccc4Cl)CC3)cc2)[nH]n1` it is under 5 µM.
The figure for `Cn1nc(C(C)(C)C)cc1NC(=O)Nc1cc(F)cc(OC2CCN(C(=O)C3(C)CC3)CC2)c1` is under 5 µM; for `Cn1nc(C(C)(C)C)cc1NC(=O)Nc1ccc(OC2CCN(C(=O)c3ccc(Cl)s3)CC2)cc1` it is under 5 µM; for `Cn1nc(C(C)(C)C)cc1NC(=O)Nc1ccc(OC2CCN(C(=O)c3cc[nH]c3)CC2)cc1` it is under 5 µM.
On to `Cn1nc(C(C)(C)C)cc1NC(=O)Nc1cc(F)cc(OC2CCN(C(=O)c3c[nH]c4ccccc34)CC2)c1`, for which the IC50 was under 5 µM.
Under `Cc1ccc(-n2nc(C(C)(C)C)cc2NC(=O)Nc2ccc(N3CCN(C(=O)CC4CCCC4)CC3)cc2)cc1` stands under 5 µM; under `Cc1cc(C(=O)N2CCC(Oc3cc(F)cc(NC(=O)Nc4cc(C(C)(C)C)nn4C)c3)CC2)c(C)[nH]1`, under 5 µM.
In the case of `Cc1ccc(-n2nc(C(C)(C)C)cc2NC(=O)Nc2ccc(N3CCN(C(=O)C4CCOC4)CC3)cc2)cc1` (stereo unspecified), the IC50 is under 5 µM.
Turning to `Cn1nc(C(C)(C)C)cc1NC(=O)Nc1cc(F)cc(OC2CCN(C(=O)c3c(Cl)cccc3Cl)CC2)c1`, the IC50 is under 5 µM.
The figure for `Cn1nc(C(C)(C)C)cc1NC(=O)Nc1ccc(OC2CCN(C(=O)c3ccc(Cl)nc3)CC2)cc1` is under 5 µM.
Molecule `Cn1nc(C(C)(C)C)cc1NC(=O)Nc1cc(F)cc(OC2CCN(C(=O)c3c(F)cccc3F)CC2)c1` displayed an IC50 of under 5 µM.
`Cn1nc(C(C)(C)C)cc1NC(=O)Nc1cccc(OC2CCN(C(=O)c3ccc(Cl)s3)CC2)c1` had an IC50 of under 5 µM.
The molecule `Cn1nc(C(C)(C)C)cc1NC(=O)Nc1ccc(C(=O)N2CCN(Cc3ccncc3)CC2)cc1` came in with an IC50 of under 5 µM.
As for `Cc1ccc(-n2nc(C(C)(C)C)cc2NC(=O)Nc2ccc(N3CCN(C(=O)C(C)C)CC3)cc2)cc1`, the IC50 was under 5 µM.
In turn, `Cn1nc(C(C)(C)C)cc1NC(=O)Nc1cc(F)cc(OC2CCN(C(=O)C3CC3)CC2)c1` returned an IC50 of under 5 µM.
Under `CCn1nc(C(C)(C)C)cc1NC(=O)Nc1ccc(CN2CCN(C(=O)c3c(Cl)cccc3Cl)CC2)cc1F` stands under 5 µM.
Consider `Cn1nc(C(C)(C)C)cc1NC(=O)Nc1cccc(C2CCN(C(=O)c3c(Cl)cccc3Cl)CC2)c1`, for which the IC50 is under 5 µM.
Under `Cn1nc(C(C)(C)C)cc1NC(=O)Nc1ccc(OC2CCN(C(=O)c3cccnc3Cl)CC2)cc1` stands under 5 µM; under `CC(C)n1nc(C(C)(C)C)cc1NC(=O)Nc1ccc(CN2CCN(C(=O)c3c(Cl)cccc3Cl)CC2)cc1`, under 5 µM; under `Cc1ccc(-n2nc(C(C)(C)C)cc2NC(=O)Nc2ccc(OC3CCN(C(=O)c4c(Cl)cccc4Cl)CC3)c3ccccc23)cc1`, under 5 µM.
In turn, `Cn1nc(C(C)(C)C)cc1NC(=O)Nc1ccc(OC2CCN(C(=O)c3ccncc3)CC2)cc1` registered an IC50 of under 5 µM.
Molecule `Cn1nc(C(C)(C)C)cc1NC(=O)Nc1ccc(N2CCN(C(=O)c3c(F)cccc3F)CC2)cc1` returned an IC50 of under 5 µM.
Under `CC(C)(C)c1cc(NC(=O)Nc2ccc(OC3CCN(C(=O)c4c(Cl)cccc4Cl)CC3)cc2)[nH]n1` stands under 5 µM; under `Cn1nc(C(C)(C)C)cc1NC(=O)Nc1cc(F)cc(OC2CCN(C(=O)c3ccc4cc[nH]c4c3)CC2)c1`, under 5 µM; under `Cn1nc(C(C)(C)C)cc1NC(=O)Nc1cccc(OC2CCN(C(=O)c3sccc3Cl)CC2)c1`, under 5 µM.
In the case of `COc1ccc(C(=O)N2CCC(Oc3cc(F)cc(NC(=O)Nc4cc(C(C)(C)C)nn4C)c3)CC2)c(OC)n1`, the IC50 was under 5 µM.
Under `Cn1nc(C(C)(C)C)cc1NC(=O)Nc1cccc(OC2CCN(C(=O)c3ccccc3)CC2)c1` stands under 5 µM; under `Cn1nc(C(C)(C)C)cc1NC(=O)Nc1cc(F)cc(OC2CCN(C(=O)C(C)(C)C)CC2)c1`, 0.019 µM.
`Cn1nc(C(C)(C)C)cc1NC(=O)Nc1ccc(OC2CCN(C(=O)OC(C)(C)C)CC2)cc1` returned an IC50 of under 5 µM.
The molecule `Cc1ccc(-n2nc(C(C)(C)C)cc2NC(=O)NC2CCN(C(=O)c3ccc(S(C)(=O)=O)cc3)CC2)cc1` yielded an IC50 of under 5 µM.
The figure for `Cn1nc(C(C)(C)C)cc1NC(=O)Nc1ccc(CN2CCN(C(=O)c3ccc(F)cc3F)CC2)c(F)c1` is under 5 µM; for `COc1ncccc1C(=O)N1CCC(Oc2ccc(NC(=O)Nc3cc(C(C)(C)C)nn3C)cc2)CC1` it is under 5 µM.
Molecule `Cn1nc(C(C)(C)C)cc1NC(=O)Nc1ccc(OC2CCN(C(=O)C3CC3)CC2)cc1` gave an IC50 of under 5 µM.
Under `Cn1nc(C(C)(C)C)cc1NC(=O)Nc1cc(F)cc(OC2CCN(C(=O)c3c(F)cccc3Cl)CC2)c1` stands under 5 µM.
Under `Cn1nc(C(C)(C)C)cc1NC(=O)Nc1cc(OC2CCN(C(=O)c3c(F)cccc3F)CC2)cc(C(F)(F)F)c1` stands under 5 µM; under `Cc1ccc(OC2CCN(C(=O)c3ccccc3Cl)CC2)cc1NC(=O)Nc1cc(C(C)(C)C)nn1C`, under 5 µM.
For `CCn1nc(C(C)(C)C)cc1NC(=O)Nc1ccc(CN2CCN(C(=O)c3c(F)cccc3F)CC2)cc1`, the IC50 is under 5 µM.
`Cn1nc(C(C)(C)C)cc1NC(=O)Nc1cc(F)cc(OC2CCN(C(=O)c3ccccc3)CC2)c1` yielded an IC50 of under 5 µM.
Under `Cc1ccc(-n2nc(C(C)(C)C)cc2NC(=O)Nc2cc(F)cc(OC3CCN(C(=O)c4sccc4C)CC3)c2)cc1` stands under 5 µM.
With `Cn1nc(C(C)(C)C)cc1NC(=O)Nc1cccc(OC2CCN(C(=O)c3ccccc3C(F)(F)F)CC2)c1`, the IC50 was under 5 µM.
On to `Cn1nc(C(C)(C)C)cc1NC(=O)Nc1cc(F)cc(OC2CCN(C(=O)c3ccccc3F)CC2)c1`, for which the IC50 was under 5 µM.
Under `Cn1nc(C(C)(C)C)cc1NC(=O)Nc1cccc(OC2CCN(C(=O)c3ccccc3Cl)CC2)c1` stands under 5 µM.
Consider `Cn1nc(C(C)(C)C)cc1NC(=O)Nc1cccc(OC2CCN(C(=O)c3ccc(Br)s3)CC2)c1`, for which the IC50 was under 5 µM.
Molecule `Cn1nc(C(C)(C)C)cc1NC(=O)Nc1ccc(CN2CCN(C(=O)c3ccc(F)cc3Cl)CC2)cc1` came in with an IC50 of under 5 µM.
In the case of `Cn1nc(C(C)(C)C)cc1NC(=O)Nc1ccc(CN2CCN(C(=O)c3c(F)cccc3Cl)CC2)cc1`, the IC50 is under 5 µM.
In turn, `Cn1nc(C(C)(C)C)cc1NC(=O)Nc1ccc(CN2CCN(C(=O)c3ccccc3Cl)CC2)cc1` returned an IC50 of under 5 µM.
`COc1ccccc1C(=O)N1CCN(Cc2ccc(NC(=O)Nc3cc(C(C)(C)C)nn3C)cc2)CC1` gave an IC50 of under 5 µM.
Under `Cn1nc(C(C)(C)C)cc1NC(=O)Nc1ccc(N2CCN(C(=O)c3c(Cl)cccc3Cl)CC2)cc1` stands under 5 µM; under `Cn1nc(C(C)(C)C)cc1NC(=O)Nc1cccc(OC2CCN(C(=O)c3c(Cl)cccc3Cl)CC2)c1`, under 5 µM.
For the molecule `Cc1ccc(-n2nc(C(C)(C)C)cc2NC(=O)Nc2ccc(OC3CCN(C(=O)C4CC4)CC3)cc2)cc1`, the IC50 is under 5 µM.
Molecule `Cn1nc(C(C)(C)C)cc1NC(=O)Nc1cccc(OC2CCN(C(=O)c3ccccc3OC(F)(F)F)CC2)c1` registered an IC50 of under 5 µM.
The figure for `Cc1ccc(-n2nc(C(C)(C)C)cc2NC(=O)Nc2ccc(N3CCN(C(=O)C4CC4C)CC3)cc2)cc1` (stereo unspecified) is under 5 µM.
The molecule `CC(C)n1nc(C(C)(C)C)cc1NC(=O)Nc1ccc(CN2CCN(C(=O)c3c(Cl)cccc3Cl)CC2)cc1F` registered an IC50 of under 5 µM.
`Cn1nc(C(C)(C)C)cc1NC(=O)Nc1cc(F)cc(OC2CCN(C(=O)c3ccc4[nH]ccc4c3)CC2)c1` had an IC50 of under 5 µM.
As for `CC(C)(C)c1cc(NC(=O)Nc2ccc(CN3CCN(C(=O)c4c(F)cccc4F)CC3)c(F)c2)n(C(C)(C)C)n1`, the IC50 was under 5 µM.
`Cn1nc(C(C)(C)C)cc1NC(=O)Nc1ccc(CN2CCN(C(=O)c3ccc(F)cc3F)CC2)cc1F` registered an IC50 of under 5 µM.
Take `Cn1nc(C(C)(C)C)cc1NC(=O)Nc1cc(F)cc(OC2CCN(C(N)=O)CC2)c1`: the IC50 was under 5 µM.
As for `Cc1ccc(-n2nc(C(C)(C)C)cc2NC(=O)Nc2ccc(N3CCN(C(=O)CC(C)(C)C)CC3)cc2)cc1`, the IC50 is under 5 µM.
Turning to `Cn1nc(C(C)(C)C)cc1NC(=O)Nc1ccc(OC2CCN(C(=O)c3ccccc3)CC2)cc1`, the IC50 is under 5 µM.
Molecule `CC(C)(C)c1cc(NC(=O)Nc2ccc(OC3CCN(C(=O)c4c(F)cccc4F)CC3)cc2)[nH]n1` displayed an IC50 of under 5 µM.
`Cn1nc(C(C)(C)C)cc1NC(=O)Nc1cc(F)cc(OC2CCN(C(=O)C3(C)CC3(Cl)Cl)CC2)c1` (stereo unspecified) showed an IC50 of under 5 µM.
For the molecule `CC(=O)N1CCN(Cc2ccc(NC(=O)Nc3cc(C(C)(C)C)nn3C)cc2)CC1`, the IC50 was under 5 µM.
Under `CC(C)C(=O)N1CCC(Oc2ccc(NC(=O)Nc3cc(C(C)(C)C)nn3C)cc2)CC1` stands under 5 µM.
With `Cn1nc(C(C)(C)C)cc1NC(=O)Nc1ccc(CN2CCN(C(=O)c3ccc(F)cc3F)CC2)cc1`, the IC50 was under 5 µM.
As for `CC(C)n1nc(C(C)(C)C)cc1NC(=O)Nc1ccc(CN2CCN(C(=O)c3ccc(F)cc3F)CC2)c(F)c1`, the IC50 is under 5 µM.
`Cc1ccc(-n2nc(C(C)(C)C)cc2NC(=O)Nc2ccc(N3CCN(C(=O)C(C)(C)C)CC3)cc2)cc1` displayed an IC50 of 0.091 µM.
The molecule `Cn1nc(C(C)(C)C)cc1NC(=O)Nc1cccc(OC2CCN(C(=O)c3c(F)cccc3Cl)CC2)c1` gave an IC50 of under 5 µM.
For `CO[C@H](C)C(=O)N1CCN(c2ccc(NC(=O)Nc3cc(C(C)(C)C)nn3-c3ccc(C)cc3)cc2)CC1`, the IC50 is under 5 µM.
The figure for `Cn1nc(C(C)(C)C)cc1NC(=O)Nc1cc(OC2CCN(C(=O)c3ccccc3Cl)CC2)cc(C(F)(F)F)c1` is under 5 µM; for `Cn1nc(C(C)(C)C)cc1NC(=O)Nc1ccc(OC2CCN(C(=O)c3ccsc3)CC2)cc1` it is under 5 µM.
For the molecule `Cn1nc(C(C)(C)C)cc1NC(=O)Nc1ccc(OC2CCN(C(=O)c3cn[nH]c3)CC2)cc1`, the IC50 is under 5 µM.
Molecule `Cn1nc(C(C)(C)C)cc1NC(=O)Nc1ccc(OC2CCN(C(=O)C3CCCC3)CC2)cc1` yielded an IC50 of under 5 µM.
With `COc1ccc(C(=O)N2CCC(Oc3ccc(NC(=O)Nc4cc(C(C)(C)C)nn4C)cc3)CC2)cn1`, the IC50 is under 5 µM.
